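These data come from cells grown in 96-well plates and exposed to compound for 48 hours at five concentrations. TGI denotes the concentration required for complete inhibition of growth.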
Tests used:
Test in all cases: DTP human tumour cell line panel, 48 h
NCI-H226 lung = tested on: NCI-H226 lung
SF-539 CNS = tested on: SF-539 CNS
NCI-H23 lung = tested on: NCI-H23 lung
HOP-62 NSCLC = tested on: HOP-62 NSCLC
LOX IMVI melanoma = tested on: LOX IMVI melanoma
UACC-257 melanoma = tested on: UACC-257 melanoma
SW-620 colon = tested on: SW-620 colon
SF-295 CNS = tested on: SF-295 CNS
U251 CNS = tested on: U251 CNS
HCT-116 colon = tested on: HCT-116 colon
SK-MEL-2 melanoma = tested on: SK-MEL-2 melanoma
SNB-75 CNS = tested on: SNB-75 CNS
OVCAR-5 ovarian = tested on: OVCAR-5 ovarian
HCT-15 colon = tested on: HCT-15 colon
SK-MEL-28 melanoma = tested on: SK-MEL-28 melanoma
MOLT-4 leukemia = tested on: MOLT-4 leukemia
HL-60(TB) leukemia = tested on: HL-60(TB) leukemia
NCI-H460 lung = tested on: NCI-H460 lung
KM12 colon = tested on: KM12 colon
HT29 colon = tested on: HT29 colon

| Structure (SMILES) | TGI (NCI-H226 lung) [µM] | TGI (SF-539 CNS) [µM] | TGI (NCI-H23 lung) [µM] | TGI (HOP-62 NSCLC) [µM] | TGI (LOX IMVI melanoma) [µM] | TGI (UACC-257 melanoma) [µM] | TGI (SW-620 colon) [µM] | TGI (SF-295 CNS) [µM] | TGI (U251 CNS) [µM] | TGI (HCT-116 colon) [µM] | TGI (SK-MEL-2 melanoma) [µM] | TGI (SNB-75 CNS) [µM] | TGI (OVCAR-5 ovarian) [µM] | TGI (HCT-15 colon) [µM] | TGI (SK-MEL-28 melanoma) [µM] | TGI (MOLT-4 leukemia) [µM] | TGI (HL-60(TB) leukemia) [µM] | TGI (NCI-H460 lung) [µM] | TGI (KM12 colon) [µM] | TGI (HT29 colon) [µM] |
| --- | --- | --- | --- | --- | --- | --- | --- | --- | --- | --- | --- | --- | --- | --- | --- | --- | --- | --- | --- | --- |
| O=C1CSC(=S)N1 | > 100 | > 100 | > 100 | > 100 | > 100 | > 100 | > 100 | > 100 | > 100 | > 100 | > 100 | > 100 | > 100 | > 100 | > 100 | > 100 | > 100 | > 100 | > 100 | – |
| Brc1ccc(C2CC(c3cccc4ccccc34)=Nc3ccccc3S2)cc1 (stereo not given) | > 100 | > 100 | > 100 | > 100 | > 100 | > 100 | 34 | > 100 | > 100 | > 100 | > 100 | > 100 | > 100 | > 100 | > 100 | > 100 | > 100 | > 100 | > 100 | > 100 |
| CC(C)(C)[Si](C)(C)OCC1OC(n2cnc3c(N)ncnc32)CC1O (stereo not given) | > 100 | – | > 100 | > 100 | > 100 | > 100 | > 100 | > 100 | > 100 | > 100 | > 100 | > 100 | > 100 | > 100 | > 100 | > 100 | > 100 | > 100 | > 100 | > 100 |
| O=C1NC2=C(CCCC/C2=N\O)C12CCCCC2 | > 100 | > 100 | > 100 | > 100 | > 100 | > 100 | > 100 | > 100 | > 100 | > 100 | – | > 100 | > 100 | > 100 | > 100 | > 100 | > 100 | > 100 | > 100 | > 100 |
| Cc1cc2c(cc1C)OC(=O)CC2 | > 100 | > 100 | > 100 | > 100 | > 100 | > 100 | > 100 | > 100 | > 100 | > 100 | > 100 | > 100 | > 100 | – | > 100 | > 100 | > 100 | > 100 | > 100 | > 100 |
| CC(=O)c1ccc2c(c1)c1c(C)c3c[n+](C)ccc3c(C)c1n2C | 11.8 | 13.9 | – | 38.2 | 49.4 | 36.2 | > 85.4 | 10.3 | 11.9 | 18.8 | 22.6 | 57.1 | > 100 | > 100 | 32.3 | 20.8 | > 68.6 | 15.1 | > 100 | > 100 |

— PubChem BioAssay (NCI)
